This note sets out measurements from patent publication US20090324760A1, “Hair tonic” (priority 2005, published 2009).

The assay deals with C3H mice. In words: Hair-growth test on shaved back of C3H mice. The assay is classed as in vivo. To be noted: 0.2 mL per mouse twice a day for two weeks, measured on sixteenth day. The procedure: The hair-growth promoting effect of the hair tonic of the invention was evaluated according to the following hair-growth test. Commercially available acteoside (manufactured by ChromaDex Corp.) or the crude acteoside according to example 1 was dissolved in a 55% wt aqueous ethanol solution. Comparative example 1 was carried out using this aqueous ethanol solution as the reference.
C3H mice (males of 8-week age, average weight 35 g, a group of 10 mice) were used as test animals. Their back (2 cm×4 cm) was shaved to prepare a test area and from the following day onwards, each test sample (0.2 mL per mouse) was applied twice a day(morning and evening) for two weeks. On the sixteenth day, a picture of the test area was taken with a video camera, and hair-growth was measured with an image analyzer. The hair-growth promoting effect was evaluated as hair-growth rate (%) calculated according to the equation reported below.
[Hair-growth rate (%)]=[area of the hair-growth portion]/[test area]×100

Substance Acteoside [Example 2] showed a Hair growth rate (sample concentration 0.1 % by weight in 55% wt aqueous ethanol) of 61.05% and a Hair growth rate (sample concentration 0.2 % by weight in 55% wt aqueous ethanol) of 65.02%.
